{"source": "patent US6156789A", "about": "“Method for treating abnormal cell proliferation in the brain” (Rhone-Poulenc Rorer S.A., priority 1998, dated 2000)", "experiment": "Tissue distribution of Compound A in mice with mammary C/16 adenocarcinomas (first method: liver, heart, kidney, lung, spleen, tumor)", "assay_type": "in vivo, C3H/HeN female mice", "parameters": "key to Percentage of Compound A (of dose) in Liver / Percentage of Compound A (of dose) in Heart / Percentage of Compound A (of dose) in Kidney / Percentage of Compound A (of dose) in Lung / Percentage of Compound A (of dose) in Spleen / Percentage of Compound A (of dose) in Tumor: --: not detected", "settings": "for Kp at 0.5 h: 0.50 h", "experimental": "Mammary C/16 adenocarcinomas were implanted in C3H/HeN female mice. At least 7 days later, 4α,10β-diacetoxy-2α-benzoyloxy-5β,20-epoxy-1β-hydroxy-7β,8β-methylene-9-oxo-19-nor-11-taxen-13α-yl (2R,3S)-3-tert-butoxycarbonylamino-2-hydroxy-3-phenylpropionate (\"Compound A\") was administered to groups of female mice at doses of 9.5, 15.4, 24.8, 40 or 60.5 mg/kg by intravenous injection under 0.4 or 0.5 ml/injection over 15 seconds. The body weight and date of implantation were recorded for each mouse. Blood and tissue samples were taken 2, 5, 15, 30 and 45 minutes and 1, 4, 14, 24 and 48 hours, after administration. The plasma was separated from the blood samples at 4° C. and frozen immediately. The tissue and tumors were weighed and frozen immediately (-20° C.).\nThe plasma and tissue samples were then analyzed for the concentration of Compound A. The plasma was assayed by high pressure liquid chromatography with spectrophotometric detection. For the tissue, liver, heart, kidney, lung, spleen and tumor tissue, samples were assayed by a first method, while a second method was used for the brain tissue analyzed. In the first method, 0.2 g of tissue was combined with 2 ml of sodium phosphate buffer 0.1 M (pH:7) and homogenized. The homogenate was centrifuged and 0.5 ml of supernatant was injected into the chromatographic column. In the second method, 10 μl of standard solution was combined with 0.2 g of brain tissue. 2 ml of methanol/5% perchloric acid (50/50) were added and the mixture was homogenized. The homogenate was centrifuged and 100 μl of supernatant was injected into the chromatographic column.", "key": {"[1]": {"settings": "0.033 h, 40 μg/kg [sic], mice with tumors, single mice, 40 mg/kg, 1.98 min"}, "[2]": {"settings": "mouse, heart/plasma, iv, 40 mg/kg, mice with tumors, single mice, read-out: Tissue/Plasma Ratio, HEART"}, "[3]": {"settings": "mouse, kidney/plasma, iv, 40 mg/kg, 40 μg/kg [sic], mice with tumors, single mice, read-out: Tissue/Plasma Ratio, KIDNEY"}}, "note": "“And” between values parts separate entries of the source, which are not always exact repeats. Identical values can stand only once. Like-named read-outs stand apart in the source and are kept apart here.", "data": [{"smiles": "CC(=O)O[C@H]1C(=O)[C@]23C[C@H]2C[C@H]2OC[C@@]2(OC(C)=O)[C@H]3[C@H](OC(=O)c2ccccc2)[C@]2(O)C[C@H](OC(=O)[C@H](O)[C@@H](NC(=O)OC(C)(C)C)c3ccccc3)C(C)=C1C2(C)C", "note": "[Compound A, 4α,10β-diacetoxy-2α-benzoyloxy-5β,20-epoxy-1β-hydroxy-7β,8β-methylene-9-oxo-19-nor-11-taxen-13α-yl (2R,3S)-3-tert-butoxycarbonylamino-2-hydroxy-3-phenylpropionate]", "values": [{"measurement": "distribution in tissues sampled", "setting": "40 mg/kg i.v.", "result": "quickly distributed in all tissues sampled"}, {"measurement": "percentage (concentration) in sampled tissue over time", "setting": "40 mg/kg i.v., first few hours, except tumor and brain tissue", "result": "fell off rapidly over the first few hours following drug administration, except in the tumor and brain tissue"}, {"measurement": "uptake of the drug", "setting": "40 mg/kg i.v., mice with mammary carcinoma", "result": "fast uptake of the drug"}, {"measurement": "drug present at 0.033 h cleared in one hour", "setting": "40 mg/kg i.v., rapid phase, except tumor and brain tissue", "result": 70, "unit": "%"}, {"measurement": "Tissue/Plasma Ratio, KIDNEY", "setting": "[1]", "result": "1.25 and 1.20"}, {"measurement": "Tissue/Plasma Ratio, LIVER", "setting": "[1]", "result": 0.91}, {"measurement": "Tissue/Plasma Ratio, SPLEEN", "setting": "[1]", "result": "0.42 and 0.43 and 0.41"}, {"measurement": "Percentage of Compound A (of dose) in Heart", "setting": "0.033 h, 40 mg/kg", "result": 0.46, "unit": "%"}, {"measurement": "Percentage of Compound A (of dose) in Kidney", "setting": "0.033 h, 40 mg/kg", "result": 2.06, "unit": "%"}, {"measurement": "Percentage of Compound A (of dose) in Liver", "setting": "0.033 h, 40 mg/kg", "result": 9.73, "unit": "%"}, {"measurement": "Percentage of Compound A (of dose) in Lung", "setting": "0.033 h, 40 mg/kg", "result": 0.67, "unit": "%"}, {"measurement": "Percentage of Compound A (of dose) in Spleen", "setting": "0.033 h, 40 mg/kg", "result": 0.27, "unit": "%"}, {"measurement": "Percentage of Compound A (of dose) in Tumor", "setting": "0.033 h, 40 mg/kg", "result": 1.07, "unit": "%"}, {"measurement": "Percentage of Compound A (of dose) in tissues, Total", "setting": "0.033 h, 40 mg/kg", "result": 14.45, "unit": "%"}, {"measurement": "Tissue/Plasma Ratio, LUNG", "setting": "0.083 h, 40 μg/kg [sic], mice with tumors, single mice, 40 mg/kg, 4.98 min", "result": 0.69}, {"measurement": "Percentage of Compound A (of dose) in Heart", "setting": "1 h, 40 mg/kg", "result": 0.08, "unit": "%"}, {"measurement": "Percentage of Compound A (of dose) in Kidney", "setting": "1 h, 40 mg/kg", "result": 0.56, "unit": "%"}, {"measurement": "Percentage of Compound A (of dose) in Liver", "setting": "1 h, 40 mg/kg", "result": 2.10, "unit": "%"}, {"measurement": "Percentage of Compound A (of dose) in Lung", "setting": "1 h, 40 mg/kg", "result": 0.18, "unit": "%"}, {"measurement": "Percentage of Compound A (of dose) in Spleen", "setting": "1 h, 40 mg/kg", "result": 0.10, "unit": "%"}, {"measurement": "Percentage of Compound A (of dose) in Tumor", "setting": "1 h, 40 mg/kg", "result": 0.94, "unit": "%"}, {"measurement": "Percentage of Compound A (of dose) in tissues, Total", "setting": "1 h, 40 mg/kg", "result": 4.37, "unit": "%"}, {"measurement": "Percentage of Compound A (of dose) in Heart", "setting": "4 h, 40 mg/kg", "result": 0.03, "unit": "%"}, {"measurement": "Percentage of Compound A (of dose) in Kidney", "setting": "4 h, 40 mg/kg", "result": 0.23, "unit": "%"}, {"measurement": "Percentage of Compound A (of dose) in Liver", "setting": "4 h, 40 mg/kg", "result": 0.47, "unit": "%"}, {"measurement": "Percentage of Compound A (of dose) in Lung", "setting": "4 h, 40 mg/kg", "result": 0.08, "unit": "%"}, {"measurement": "Percentage of Compound A (of dose) in Spleen", "setting": "4 h, 40 mg/kg", "result": 0.05, "unit": "%"}, {"measurement": "Percentage of Compound A (of dose) in Tumor", "setting": "4 h, 40 mg/kg", "result": 0.37, "unit": "%"}, {"measurement": "Percentage of Compound A (of dose) in tissues, Total", "setting": "4 h, 40 mg/kg", "result": 1.62, "unit": "%"}, {"measurement": "Percentage of Compound A (of dose) in Heart", "setting": "24 h, 40 mg/kg", "result": "--"}, {"measurement": "Percentage of Compound A (of dose) in Kidney", "setting": "24 h, 40 mg/kg", "result": "--"}, {"measurement": "Percentage of Compound A (of dose) in Liver", "setting": "24 h, 40 mg/kg", "result": "--"}, {"measurement": "Percentage of Compound A (of dose) in Lung", "setting": "24 h, 40 mg/kg", "result": "--"}, {"measurement": "Percentage of Compound A (of dose) in Spleen", "setting": "24 h, 40 mg/kg", "result": "--"}, {"measurement": "Percentage of Compound A (of dose) in Tumor", "setting": "24 h, 40 mg/kg", "result": 0.09, "unit": "%"}, {"measurement": "Percentage of Compound A (of dose) in tissues, Total", "setting": "24 h, 40 mg/kg", "result": 0.42, "unit": "%"}, {"measurement": "Percentage of Compound A (of dose) in Heart", "setting": "48 h, 40 mg/kg", "result": "--"}, {"measurement": "Percentage of Compound A (of dose) in Kidney", "setting": "48 h, 40 mg/kg", "result": "--"}, {"measurement": "Percentage of Compound A (of dose) in Liver", "setting": "48 h, 40 mg/kg", "result": "--"}, {"measurement": "Percentage of Compound A (of dose) in Lung", "setting": "48 h, 40 mg/kg", "result": "--"}, {"measurement": "Percentage of Compound A (of dose) in Spleen", "setting": "48 h, 40 mg/kg", "result": "--"}, {"measurement": "Percentage of Compound A (of dose) in Tumor", "setting": "48 h, 40 mg/kg", "result": "--"}, {"measurement": "Percentage of Compound A (of dose) in tissues, Total", "setting": "48 h, 40 mg/kg", "result": 0.19, "unit": "%"}, {"measurement": "AUC 0-4 Hours, Heart", "setting": "dose = 40 mg/kg", "result": 24.8, "unit": "µg·h/g"}, {"measurement": "AUC 0-4 Hours, Kidney", "setting": "dose = 40 mg/kg", "result": 74.4, "unit": "µg·h/g"}, {"measurement": "AUC 0-4 Hours, Liver", "setting": "dose = 40 mg/kg", "result": 70.8, "unit": "µg·h/g"}, {"measurement": "AUC 0-4 Hours, Lung", "setting": "dose = 40 mg/kg", "result": 34.3, "unit": "µg·h/g"}, {"measurement": "AUC 0-4 Hours, Spleen", "setting": "dose = 40 mg/kg", "result": 34.6, "unit": "µg·h/g"}, {"measurement": "AUC 0-4 Hours, Tumor", "setting": "dose = 40 mg/kg", "result": 35.6, "unit": "µg·h/g"}, {"measurement": "AUC 0 to Infinity, Heart", "setting": "dose = 40 mg/kg", "result": 28, "unit": "µg·h/g"}, {"measurement": "AUC 0 to Infinity, Kidney", "setting": "dose = 40 mg/kg", "result": 121, "unit": "µg·h/g"}, {"measurement": "AUC 0 to Infinity, Liver", "setting": "dose = 40 mg/kg", "result": 93, "unit": "µg·h/g"}, {"measurement": "AUC 0 to Infinity, Lung", "setting": "dose = 40 mg/kg", "result": 52, "unit": "µg·h/g"}, {"measurement": "AUC 0 to Infinity, Spleen", "setting": "dose = 40 mg/kg", "result": 80, "unit": "µg·h/g"}, {"measurement": "AUC 0 to Infinity, Tumor", "setting": "dose = 40 mg/kg", "result": 107, "unit": "µg·h/g"}, {"measurement": "half-life", "setting": "mouse, heart, iv, 40 mg/kg, read-out: t 1/2, Heart (converted)", "result": 96, "unit": "min"}, {"measurement": "Tmax", "setting": "mouse, heart, iv, 40 mg/kg i.v., read-out: time of maximum concentration, heart", "result": 1.98, "unit": "min"}, {"measurement": "Kp at 0.033 h", "setting": "mouse, heart/plasma, iv, 40 mg/kg, 0.033 h, mice with tumors, single mice, read-out: Tissue/Plasma Ratio, HEART", "result": 0.45}, {"measurement": "Kp at 0.083 h", "setting": "mouse, heart/plasma, iv, 40 mg/kg, 0.083 h, mice with tumors, single mice, read-out: Tissue/Plasma Ratio, HEART", "result": 0.98}, {"measurement": "Kp at 0.25 h", "setting": "[2]", "result": 0.65}, {"measurement": "Kp at 0.5 h", "setting": "[2]", "result": 0.88}, {"measurement": "Kp at 0.75 h", "setting": "[2]", "result": 0.87}, {"measurement": "Kp at 1 h", "setting": "mouse, heart/plasma, iv, 40 mg/kg, 1 h, mice with tumors, single mice, read-out: Tissue/Plasma Ratio, HEART", "result": 0.77}, {"measurement": "half-life", "setting": "mouse, kidney, iv, 40 mg/kg, 40 mg/kg i.v., read-out: half-life of the distribution phase, kidney (converted)", "result": 3, "unit": "min"}, {"measurement": "half-life", "setting": "mouse, kidney, iv, 40 mg/kg, read-out: t 1/2, Kidney (converted)", "result": 162, "unit": "min"}, {"measurement": "Tmax", "setting": "mouse, kidney, iv, 40 mg/kg i.v., read-out: time of maximum concentration, kidney", "result": 1.98, "unit": "min"}, {"measurement": "Kp at 0.033 h", "setting": "mouse, kidney/plasma, iv, 40 mg/kg, 0.033 h, 40 μg/kg [sic], mice with tumors, single mice, read-out: Tissue/Plasma Ratio, KIDNEY", "result": 1.7}, {"measurement": "Kp at 0.083 h", "setting": "mouse, kidney/plasma, iv, 40 mg/kg, 0.083 h, 40 μg/kg [sic], mice with tumors, single mice, read-out: Tissue/Plasma Ratio, KIDNEY", "result": 2.4}, {"measurement": "Kp at 0.25 h", "setting": "[3]", "result": 1.35}, {"measurement": "Kp at 0.5 h", "setting": "[3]", "result": 1.88}, {"measurement": "Kp at 0.75 h", "setting": "[3]", "result": 2.44}]}]}
